Data from ChEMBL document CHEMBL3608278 (J Med Chem, 2015).

Key:
[1] = molecular target: T1, Potassium voltage-gated channel subfamily A member 3 (Homo sapiens, UniProt P22001); assay: cell-based; parameters: species or system Blood
[2] = molecular target: T1, Potassium voltage-gated channel subfamily A member 3; parameters: species or system Blood

T1 sequence (P22001 whole entry): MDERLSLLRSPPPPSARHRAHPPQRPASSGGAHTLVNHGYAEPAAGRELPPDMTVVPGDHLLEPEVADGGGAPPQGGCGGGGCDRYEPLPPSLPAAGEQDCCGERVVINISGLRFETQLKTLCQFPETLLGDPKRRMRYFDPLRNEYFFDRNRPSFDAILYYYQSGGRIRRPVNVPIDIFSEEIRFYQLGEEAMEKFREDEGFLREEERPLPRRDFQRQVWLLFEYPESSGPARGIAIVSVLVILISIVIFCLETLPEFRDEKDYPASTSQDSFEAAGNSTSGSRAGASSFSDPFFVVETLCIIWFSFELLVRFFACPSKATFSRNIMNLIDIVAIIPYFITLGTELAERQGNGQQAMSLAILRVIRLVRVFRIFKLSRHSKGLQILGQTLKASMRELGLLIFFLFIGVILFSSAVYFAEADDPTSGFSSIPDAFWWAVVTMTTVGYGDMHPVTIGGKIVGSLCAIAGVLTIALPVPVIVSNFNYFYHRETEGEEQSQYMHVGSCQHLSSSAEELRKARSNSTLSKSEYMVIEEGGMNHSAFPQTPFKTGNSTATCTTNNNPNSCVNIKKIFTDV

| SMILES | IC50 [1] [pM] | IC50 [2] [pM] |
| --- | --- | --- |
| CC[C@H](C)[C@@H]1NC(=O)[C@@H](NC(=O)[C@H](CO)NC(=O)[C@@H](N)CCCNC(=N)N)CSSC[C@@H](C(=O)O)NC(=O)[C@H]([C@@H](C)O)NC(=O)CNC(=O)[C@@H]2CSSC[C@@H]3NC(=O)[C@H](CCC(N)=O)NC(=O)[C@H](Cc4ccccc4)NC(=O)[C@H](C)NC(=O)[C@H]([C@@H](C)O)NC(=O)[C@H](CSSC[C@H](NC(=O)[C@H](Cc4ccccc4)NC(=O)[C@H](CO)NC(=O)[C@H](CC(C)C)NC(=O)[C@H](CCCNC(=N)N)NC(=O)[C@H](Cc4ccc(O)cc4)NC(=O)[C@H](CCCCN)NC(=O)[C@H](CCSC)NC(=O)[C@H](CO)NC(=O)[C@H](Cc4cnc[nH]4)NC(=O)[C@H](CCCCN)NC3=O)C(=O)N[C@@H](CCCNC(=N)N)C(=O)N[C@@H](CCCCN)C(=O)N[C@@H]([C@@H](C)O)C(=O)N2)NC(=O)[C@H](CCCNC(=N)N)NC(=O)[C@H](CO)NC(=O)[C@H](CCCCN)NC(=O)[C@@H]2CCCN2C(=O)[C@H](CCCNC(=N)N)NC(=O)[C@H]([C@@H](C)O)NC(=O)[C@H](CC(=O)O)NC1=O | 6560 | 10100 |
| CC[C@H](C)[C@@H]1NC(=O)[C@@H](NC(=O)[C@H](CO)NC(=O)[C@@H](N)CCCNC(=N)N)CSSC[C@@H](C(=O)O)NC(=O)[C@H]([C@@H](C)O)NC(=O)CNC(=O)[C@@H]2CSSC[C@@H]3NC(=O)[C@H](CCC(N)=O)NC(=O)[C@H](Cc4ccccc4)NC(=O)[C@H](C)NC(=O)[C@H]([C@@H](C)O)NC(=O)[C@H](CSSC[C@H](NC(=O)[C@H](Cc4ccccc4)NC(=O)[C@H](CCC(=O)O)NC(=O)[C@H](CC(C)C)NC(=O)[C@H](CCCNC(=N)N)NC(=O)[C@H](Cc4ccc(O)cc4)NC(=O)[C@H](CCCCN)NC(=O)[C@H](CCSC)NC(=O)[C@H](CO)NC(=O)[C@H](Cc4cnc[nH]4)NC(=O)[C@H](CCCCN)NC3=O)C(=O)N[C@@H](CCCNC(=N)N)C(=O)N[C@@H](CCCCN)C(=O)N[C@@H]([C@@H](C)O)C(=O)N2)NC(=O)[C@H](CCCNC(=N)N)NC(=O)[C@H](CO)NC(=O)[C@H](CCCCN)NC(=O)[C@@H]2CCCN2C(=O)[C@H]([C@@H](C)CC)NC(=O)[C@H]([C@@H](C)O)NC(=O)[C@H](CC(=O)O)NC1=O | 202 | 400 |
| CC[C@H](C)[C@@H]1NC(=O)[C@@H](NC(=O)[C@H](CO)NC(=O)[C@@H](N)CCCNC(=N)N)CSSC[C@@H](C(=O)O)NC(=O)[C@H]([C@@H](C)O)NC(=O)CNC(=O)[C@@H]2CSSC[C@@H]3NC(=O)[C@H](CCC(N)=O)NC(=O)[C@H](Cc4ccccc4)NC(=O)[C@H](C)NC(=O)[C@H]([C@@H](C)O)NC(=O)[C@H](CSSC[C@H](NC(=O)[C@H](Cc4ccccc4)NC(=O)[C@H](CO)NC(=O)[C@H](CC(C)C)NC(=O)[C@H](CCCNC(=N)N)NC(=O)[C@H](Cc4ccc(O)cc4)NC(=O)[C@H](CCCCN)NC(=O)[C@H](CCSC)NC(=O)[C@H](CO)NC(=O)[C@H](Cc4cnc[nH]4)NC(=O)[C@H](CCCCN)NC3=O)C(=O)N[C@@H](CCC(=O)O)C(=O)N[C@@H](CCCCN)C(=O)N[C@@H]([C@@H](C)O)C(=O)N2)NC(=O)[C@H](CCCNC(=N)N)NC(=O)[C@H](CO)NC(=O)[C@H](CCCCN)NC(=O)[C@@H]2CCCN2C(=O)[C@H]([C@@H](C)CC)NC(=O)[C@H]([C@@H](C)O)NC(=O)[C@H](CC(=O)O)NC1=O | 730 | 1960 |
| CC[C@H](C)[C@@H]1NC(=O)[C@@H](NC(=O)[C@H](CCCNC(=N)N)NC(=O)[C@@H](N)CCCNC(=N)N)CSSC[C@@H](C(=O)O)NC(=O)[C@H]([C@@H](C)O)NC(=O)CNC(=O)[C@@H]2CSSC[C@@H]3NC(=O)[C@H](CCC(N)=O)NC(=O)[C@H](Cc4ccccc4)NC(=O)[C@H](C)NC(=O)[C@H]([C@@H](C)O)NC(=O)[C@H](CSSC[C@H](NC(=O)[C@H](Cc4ccccc4)NC(=O)[C@H](CO)NC(=O)[C@H](CC(C)C)NC(=O)[C@H](CCCNC(=N)N)NC(=O)[C@H](Cc4ccc(O)cc4)NC(=O)[C@H](CCCCN)NC(=O)[C@H](CCSC)NC(=O)[C@H](CO)NC(=O)[C@H](Cc4cnc[nH]4)NC(=O)[C@H](CCCCN)NC3=O)C(=O)N[C@@H](CCCNC(=N)N)C(=O)N[C@@H](CCCCN)C(=O)N[C@@H]([C@@H](C)O)C(=O)N2)NC(=O)[C@H](CCCNC(=N)N)NC(=O)[C@H](CO)NC(=O)[C@H](CCCCN)NC(=O)[C@@H]2CCCN2C(=O)[C@H]([C@@H](C)CC)NC(=O)[C@H]([C@@H](C)O)NC(=O)[C@H](CC(=O)O)NC1=O | 87 | 116 |
| CC[C@H](C)[C@@H]1NC(=O)[C@H]([C@@H](C)O)NC(=O)[C@H](CC(=O)O)NC(=O)[C@H](CCCNC(=N)N)NC(=O)[C@@H](NC(=O)[C@H](CO)NC(=O)[C@@H](N)CCCNC(=N)N)CSSC[C@@H](C(=O)O)NC(=O)[C@H]([C@@H](C)O)NC(=O)CNC(=O)[C@@H]2CSSC[C@@H]3NC(=O)[C@H](CCC(N)=O)NC(=O)[C@H](Cc4ccccc4)NC(=O)[C@H](C)NC(=O)[C@H]([C@@H](C)O)NC(=O)[C@H](CSSC[C@H](NC(=O)[C@H](Cc4ccccc4)NC(=O)[C@H](CO)NC(=O)[C@H](CC(C)C)NC(=O)[C@H](CCCNC(=N)N)NC(=O)[C@H](Cc4ccc(O)cc4)NC(=O)[C@H](CCCCN)NC(=O)[C@H](CCSC)NC(=O)[C@H](CO)NC(=O)[C@H](Cc4cnc[nH]4)NC(=O)[C@H](CCCCN)NC3=O)C(=O)N[C@@H](CCCNC(=N)N)C(=O)N[C@@H](CCCCN)C(=O)N[C@@H]([C@@H](C)O)C(=O)N2)NC(=O)[C@H](CCCNC(=N)N)NC(=O)[C@H](CO)NC(=O)[C@H](CCCCN)NC(=O)[C@@H]2CCCN2C1=O | 98 | 123 |
| CC[C@H](C)[C@@H]1NC(=O)[C@@H](NC(=O)[C@H](CO)NC(=O)[C@@H](N)CCCNC(=N)N)CSSC[C@@H](C(=O)O)NC(=O)[C@H]([C@@H](C)O)NC(=O)CNC(=O)[C@@H]2CSSC[C@@H]3NC(=O)[C@H](CCC(N)=O)NC(=O)[C@H](Cc4ccccc4)NC(=O)[C@H](C)NC(=O)[C@H]([C@@H](C)O)NC(=O)[C@H](CSSC[C@H](NC(=O)[C@H](Cc4ccccc4)NC(=O)[C@H](CO)NC(=O)[C@H](CC(C)C)NC(=O)[C@H](CCCNC(=N)N)NC(=O)[C@H](Cc4ccc(O)cc4)NC(=O)[C@H](CCCCN)NC(=O)[C@H](CCSC)NC(=O)[C@H](CO)NC(=O)[C@H](Cc4c[nH]cn4)NC(=O)[C@H](CCCCN)NC3=O)C(=O)N[C@@H](CCCNC(=N)N)C(=O)N[C@@H](CCCCN)C(=O)N[C@@H]([C@@H](C)O)C(=O)N2)NC(=O)[C@H](CCCNC(=N)N)NC(=O)[C@H](CO)NC(=O)[C@H](CCCCN)NC(=O)[C@@H]2CCCN2C(=O)[C@H]([C@@H](C)CC)NC(=O)[C@H](CCCNC(=N)N)NC(=O)[C@H](CC(=O)O)NC1=O | 215 | 304 |
| CC[C@H](C)[C@@H]1NC(=O)[C@@H](NC(=O)[C@H](CO)NC(=O)[C@@H](N)CCCNC(=N)N)CSSC[C@@H](C(=O)O)NC(=O)[C@H]([C@@H](C)O)NC(=O)CNC(=O)[C@@H]2CSSC[C@@H]3NC(=O)[C@H](CCC(N)=O)NC(=O)[C@H](Cc4ccccc4)NC(=O)[C@H](C)NC(=O)[C@H]([C@@H](C)O)NC(=O)[C@H](CSSC[C@H](NC(=O)[C@H](Cc4ccccc4)NC(=O)[C@H](CO)NC(=O)[C@H](CC(C)C)NC(=O)[C@H](CCCNC(=N)N)NC(=O)[C@H](Cc4ccc(O)cc4)NC(=O)[C@H](CCCCN)NC(=O)[C@H](CCSC)NC(=O)[C@H](CO)NC(=O)[C@H](Cc4cnc[nH]4)NC(=O)[C@H](CCCCN)NC3=O)C(=O)N[C@@H](CCCNC(=N)N)C(=O)N[C@@H](Cc3cccc4ccccc34)C(=O)N[C@@H]([C@@H](C)O)C(=O)N2)NC(=O)[C@H](CCCNC(=N)N)NC(=O)[C@H](CO)NC(=O)[C@H](CCCCN)NC(=O)[C@@H]2CCCN2C(=O)[C@H]([C@@H](C)CC)NC(=O)[C@H]([C@@H](C)O)NC(=O)[C@H](CC(=O)O)NC1=O | 82 | 148 |
| CC[C@H](C)[C@@H]1NC(=O)[C@@H](NC(=O)[C@H](CO)NC(=O)[C@@H](N)CCCNC(=N)N)CSSC[C@@H](C(=O)O)NC(=O)[C@H]([C@@H](C)O)NC(=O)CNC(=O)[C@@H]2CSSC[C@@H]3NC(=O)[C@H](CCC(N)=O)NC(=O)[C@H](Cc4ccccc4)NC(=O)[C@H](C)NC(=O)[C@H]([C@@H](C)O)NC(=O)[C@H](CSSC[C@H](NC(=O)[C@H](Cc4ccccc4)NC(=O)[C@H](CO)NC(=O)[C@H](CC(C)C)NC(=O)[C@H](CCCNC(=N)N)NC(=O)[C@H](Cc4ccc(O)cc4)NC(=O)[C@H](CCCCN)NC(=O)[C@H](CCSC)NC(=O)[C@H](CO)NC(=O)[C@H](Cc4c[nH]cn4)NC(=O)[C@H](CCCCN)NC3=O)C(=O)N[C@@H](CCCNC(=N)N)C(=O)N[C@@H](CCCCN)C(=O)N[C@@H]([C@@H](C)O)C(=O)N2)NC(=O)[C@H](CCCNC(=N)N)NC(=O)[C@H](CO)NC(=O)[C@H](CCCCN)NC(=O)[C@@H]2CCCN2C(=O)[C@H]([C@@H](C)CC)NC(=O)[C@H](CCC(=O)O)NC(=O)[C@H](CC(=O)O)NC1=O | 74 | 109 |
| CC[C@H](C)[C@@H]1NC(=O)[C@@H](NC(=O)[C@H](CO)NC(=O)[C@@H](N)CCCNC(=N)N)CSSC[C@@H](C(=O)O)NC(=O)[C@H]([C@@H](C)O)NC(=O)CNC(=O)[C@@H]2CSSC[C@@H]3NC(=O)[C@H](CCC(N)=O)NC(=O)[C@H](Cc4ccccc4)NC(=O)[C@H](C)NC(=O)[C@H]([C@@H](C)O)NC(=O)[C@H](CSSC[C@H](NC(=O)[C@H](Cc4ccccc4)NC(=O)[C@H](CO)NC(=O)[C@H](CC(C)C)NC(=O)[C@H](CCCNC(=N)N)NC(=O)[C@H](Cc4ccc(O)cc4)NC(=O)[C@H](CCCCN)NC(=O)[C@H](CCSC)NC(=O)[C@H](CO)NC(=O)[C@H](Cc4cnc[nH]4)NC(=O)[C@H](CCCCN)NC3=O)C(=O)N[C@@H](CCCNC(=N)N)C(=O)N[C@@H](CCCCN)C(=O)N[C@@H]([C@@H](C)O)C(=O)N2)NC(=O)[C@H](CCCNC(=N)N)NC(=O)[C@H](CCC(=O)O)NC(=O)[C@H](CCCCN)NC(=O)[C@@H]2CCCN2C(=O)[C@H]([C@@H](C)CC)NC(=O)[C@H]([C@@H](C)O)NC(=O)[C@H](CC(=O)O)NC1=O | 23 | 55 |
